Source: ChEMBL document CHEMBL1201862, “PubChem BioAssay data set” (2004)
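Each compound was tested at five concentrations against cells in 96-well plates for 48 hours. GI50 = concentration required for 50% inhibition of growth.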 The source made the active and inactive calls. No stated cut-off is given here; in the data, active = GI50 up to about 1.1 µM and inactive = higher.

Assays:
Test in all cases: growth of human tumour cells (NCI), 48 h
NCI-H226 = system: NCI-H226
Malme-3M = system: Malme-3M
SN12C = system: SN12C
SW-620 = system: SW-620
HCT-116 = system: HCT-116
A549 = system: A549
A498 = system: A498
SK-OV-3 = system: SK-OV-3
HCT-15 = system: HCT-15
UACC-257 = system: UACC-257
CAKI-1 = system: CAKI-1
TK-10 = system: TK-10
SK-MEL-28 = system: SK-MEL-28
NCI-H460 = system: NCI-H460
HOP-92 = system: HOP-92

| Structure (SMILES) | GI50 (NCI-H226) | GI50 (Malme-3M) | GI50 (SN12C) | GI50 (SW-620) | GI50 (HCT-116) | GI50 (A549) | GI50 (A498) | GI50 (SK-OV-3) | GI50 (HCT-15) [µM] | GI50 (UACC-257) | GI50 (CAKI-1) | GI50 (TK-10) | GI50 (SK-MEL-28) | GI50 (NCI-H460) | GI50 (HOP-92) |
| --- | --- | --- | --- | --- | --- | --- | --- | --- | --- | --- | --- | --- | --- | --- | --- |
| Nc1nc(CCC(=O)Nc2cccc(C(F)(F)F)c2)cc(-c2cccc3ccccc23)n1 | > 100 µM (inactive) | > 100 µM (inactive) | > 100 µM (inactive) | > 100 µM (inactive) | > 100 µM (inactive) | > 100 µM (inactive) | > 100 µM (inactive) | > 100 µM (inactive) | > 100 | > 100 µM (inactive) | > 100 µM (inactive) | > 100 µM (inactive) | > 100 µM (inactive) | > 100 µM (inactive) |  |
| CC12CC(Sc3ccccc3N1)c1ccccc1O2 (stereo not drawn) |  | 16.1 µM (inactive) | 18.8 µM (inactive) | 17.7 µM (inactive) | 15.2 µM (inactive) | 18.8 µM (inactive) | 18.5 µM (inactive) | 33.7 µM (inactive) | 15.6 | 14.5 µM (inactive) | 19.2 µM (inactive) | 28.9 µM (inactive) | 16.7 µM (inactive) | 16.6 µM (inactive) | 18.7 µM (inactive) |
| COc1cc(C2C(Cl)C(=O)N2NC(=O)c2ccc(N)cc2)cc(Br)c1O (stereo not drawn) | 21.5 µM (inactive) | 14.5 µM (inactive) | 17 µM (inactive) | 15.2 µM (inactive) | 10.4 µM (inactive) | 21.5 µM (inactive) | 37.2 µM (inactive) | 28.5 µM (inactive) | 15 | 19 µM (inactive) | 16.8 µM (inactive) | 18.5 µM (inactive) | 16.2 µM (inactive) | 16.6 µM (inactive) | 23 µM (inactive) |
| Cc1cn(C2CC(O)C(CO)O2)c(=O)n2nnnc12 (stereo not drawn) | > 100 µM (inactive) | > 100 µM (inactive) |  | > 100 µM (inactive) | > 100 µM (inactive) | > 100 µM (inactive) | > 100 µM (inactive) | > 100 µM (inactive) | > 100 | > 100 µM (inactive) |  | > 100 µM (inactive) | > 100 µM (inactive) | > 100 µM (inactive) | > 100 µM (inactive) |
| CC(=O)O[C@H]1CC[C@@]2(C)C(CC[C@]3(C)C2CC[C@]2(C)Oc4c(C)cc(O)cc4C[C@@H]23)C1(C)C (stereo partly drawn) | 15.9 µM (inactive) | 10.1 µM (inactive) | > 10 µM (inactive) | 1.88 µM (inactive) | 5.27 µM (inactive) | 5.22 µM (inactive) | 12.7 µM (inactive) | 7.08 µM (inactive) | 3.66 | 8.47 µM (inactive) | 8.99 µM (inactive) | 13.2 µM (inactive) | 8.59 µM (inactive) | 4.11 µM (inactive) | 6.85 µM (inactive) |
| O=C1Nc2ccccc2C12CCCC2 |  | > 100 µM (inactive) | > 100 µM (inactive) | > 100 µM (inactive) | > 100 µM (inactive) | > 100 µM (inactive) | > 100 µM (inactive) | > 100 µM (inactive) | > 100 | > 100 µM (inactive) | > 100 µM (inactive) | > 100 µM (inactive) | > 100 µM (inactive) | > 100 µM (inactive) |  |
| COc1c(C)c2c(c(C)c1Cl)Oc1c(C=O)c(O)c(Cl)c(C)c1C(=O)O2 | 28.7 µM (inactive) | 23.2 µM (inactive) | 33.3 µM (inactive) | 43.8 µM (inactive) | 23 µM (inactive) | 33.7 µM (inactive) | 24.2 µM (inactive) | 33.2 µM (inactive) |  | 31.4 µM (inactive) | 40.7 µM (inactive) | 31.8 µM (inactive) |  | 32.3 µM (inactive) |  |
| CC(C)(C)N1CC2(CCCCC2)C1=O | > 100 µM (inactive) | > 100 µM (inactive) | > 100 µM (inactive) | > 100 µM (inactive) | > 100 µM (inactive) | > 100 µM (inactive) | > 100 µM (inactive) | > 100 µM (inactive) | > 100 | > 100 µM (inactive) | > 100 µM (inactive) | > 100 µM (inactive) | > 100 µM (inactive) | > 100 µM (inactive) | > 100 µM (inactive) |
| O=C(O)COc1ccc2c3c1C(=O)CCC3CO2 (stereo not drawn) |  | > 100 µM (inactive) | > 100 µM (inactive) | > 100 µM (inactive) | > 100 µM (inactive) | > 100 µM (inactive) | > 100 µM (inactive) | > 100 µM (inactive) | > 100 | > 100 µM (inactive) | > 100 µM (inactive) | > 100 µM (inactive) | > 100 µM (inactive) | > 100 µM (inactive) | > 100 µM (inactive) |
| CCOC(=O)C1S/C(=N\c2ccc(OC)c(OC)c2)N=C1C (stereo not drawn) | 64.1 µM (inactive) | 37.7 µM (inactive) | 44.1 µM (inactive) | 42.7 µM (inactive) | 32.7 µM (inactive) | 34.8 µM (inactive) | 52.7 µM (inactive) | 62.7 µM (inactive) | 28.6 | 41.7 µM (inactive) | 39.3 µM (inactive) | 75.9 µM (inactive) | 30.6 µM (inactive) | 43.5 µM (inactive) | 37.2 µM (inactive) |
| CC(=O)OC1CCn2nnc(COC(=O)NC(C)C)c21 (stereo not drawn) | > 100 µM (inactive) | > 100 µM (inactive) | > 100 µM (inactive) | > 100 µM (inactive) | > 100 µM (inactive) | > 100 µM (inactive) |  | > 100 µM (inactive) | > 100 | > 100 µM (inactive) | > 100 µM (inactive) | > 100 µM (inactive) | > 100 µM (inactive) | > 100 µM (inactive) | > 100 µM (inactive) |
| CC[P+](C)(C)CC | > 100 µM (inactive) | > 100 µM (inactive) | > 100 µM (inactive) | > 100 µM (inactive) | > 100 µM (inactive) | > 100 µM (inactive) |  | > 100 µM (inactive) | > 100 | > 100 µM (inactive) |  | > 100 µM (inactive) | > 100 µM (inactive) | > 100 µM (inactive) | > 100 µM (inactive) |
| CCOC(=O)C(=O)Nc1ccccc1C(F)(F)F | > 100 µM (inactive) | > 100 µM (inactive) | > 100 µM (inactive) | > 100 µM (inactive) | > 100 µM (inactive) | > 100 µM (inactive) | > 100 µM (inactive) | > 100 µM (inactive) | > 100 | > 100 µM (inactive) | > 100 µM (inactive) | > 100 µM (inactive) | > 100 µM (inactive) | > 100 µM (inactive) | > 100 µM (inactive) |
| CC1=C(C(=O)Nc2ccccc2C)C(/C=C/c2ccccc2)C(C(=O)Nc2ccccc2C)=C(C)N1 | > 100 µM (inactive) | > 100 µM (inactive) | > 100 µM (inactive) | > 100 µM (inactive) | > 100 µM (inactive) | 99.3 µM (inactive) | 37.8 µM (inactive) | > 100 µM (inactive) | > 100 | > 100 µM (inactive) | > 100 µM (inactive) | > 100 µM (inactive) | > 100 µM (inactive) | > 100 µM (inactive) | 80 µM (inactive) |
| CC(C)=C1CCC(CN2CCCC2)C1=O (stereo not drawn) | > 100 µM (inactive) | 21.4 µM (inactive) | 17.6 µM (inactive) | 22.1 µM (inactive) | 17.7 µM (inactive) | > 100 µM (inactive) | > 100 µM (inactive) |  | 18.5 | 24.7 µM (inactive) | 13.7 µM (inactive) | 27.5 µM (inactive) | 26.7 µM (inactive) | 58.7 µM (inactive) | 24.6 µM (inactive) |
| C=C1C(=O)O[C@H](c2ccoc2)C[C@@H]1[C@@]1(C)CCCC2(C)C(=O)OCC21 (stereo partly drawn) | > 100 µM (inactive) | > 100 µM (inactive) | > 100 µM (inactive) | > 100 µM (inactive) | > 100 µM (inactive) | > 100 µM (inactive) | > 100 µM (inactive) | > 100 µM (inactive) | > 100 | > 100 µM (inactive) | > 100 µM (inactive) | > 100 µM (inactive) | > 100 µM (inactive) | > 100 µM (inactive) |  |
| C[C@H](NC(=O)n1c2ccccc2c2ccccc21)C(=O)O | > 100 µM (inactive) | > 100 µM (inactive) | > 100 µM (inactive) | > 100 µM (inactive) | > 100 µM (inactive) | > 100 µM (inactive) |  | > 100 µM (inactive) | > 100 | > 100 µM (inactive) | > 100 µM (inactive) | > 100 µM (inactive) | > 100 µM (inactive) | > 100 µM (inactive) | > 100 µM (inactive) |
| CN(C)CCC(=O)N1CCc2c([nH]c3ccccc23)C1c1cccnc1 (stereo not drawn) |  |  | > 100 µM (inactive) | > 100 µM (inactive) | > 100 µM (inactive) | > 100 µM (inactive) | > 100 µM (inactive) | > 100 µM (inactive) | > 100 | 28.5 µM (inactive) | > 100 µM (inactive) | > 100 µM (inactive) | 54.2 µM (inactive) | > 100 µM (inactive) | 36.3 µM (inactive) |
| C[C@H](C(=O)C12CC3CC(CC(C3)C1)C2)[C@H](O)c1ccccc1 | 16.8 µM (inactive) |  | 19.5 µM (inactive) | 47.9 µM (inactive) | 16.1 µM (inactive) | 40.7 µM (inactive) |  | 83.9 µM (inactive) |  | 29.9 µM (inactive) | 36 µM (inactive) | 36.1 µM (inactive) | 17.6 µM (inactive) | 35.2 µM (inactive) | 21.9 µM (inactive) |
| Cn1c2c(c3ccccc31)CCN(CCCCN1CCc3c(n(C)c4ccccc34)C1=O)C2 |  | > 100 µM (inactive) | > 100 µM (inactive) | > 100 µM (inactive) | > 100 µM (inactive) | > 100 µM (inactive) | > 100 µM (inactive) | 92.7 µM (inactive) | > 100 | > 100 µM (inactive) | > 100 µM (inactive) | > 100 µM (inactive) | > 100 µM (inactive) | > 100 µM (inactive) | > 100 µM (inactive) |
